Measured values: patent US20240174647A1 (NEURON23, INC., priority 2022, published 2024)

Target: wt human LRRK2, catalytic site (Homo sapiens (Human), UniProt Q5S007)
Experiment: TR-FRET LanthaScreen Tb Kinase Activity Assay (LRRK2 kinase inhibition)
Assay type: biochemical
Conditions: 2 nM wt human LRRK2, 400 nM fluorescein-ERM (LRRKtide) peptide, 38 μM ATP, 120 minutes at room temperature
Experimental: The compounds in Table 1 were tested for their inhibitory effect on LRRK2 kinase according to the following procedures.
The protocol for basic TR-FRET LanthaScreen Tb Kinase Activity Assay inhibitor studies were as follows. LanthaScreen Kinase Activity Assays (ThermoFisher/USA) to evaluate inhibitors were performed by addition of 100 nL of test compound in corresponding DMSO dilutions/5 μL of kinase/fluorescein-ERM(LRRKtide) peptide mixture, 5 μL of ATP into 384 well small volume plates. After incubation for 120 minutes at room temperature, the detection reagents containing Tb-anti-pLRRKtide antibody were added to monitor phosphrylation level of peptide. Then, after 60 min minutes incubation at room temperature plates were read in Envision. Data analysis of emission ratios was according to LanthaScreen Tb Kinase Activity Assay protocol.
Kinase and assay components were adjusted to final concentrations according to the kit protocol. For LRRK2: 2 nM wt human LRRK2, catalytic site, catalytic site (ThermoFisher/USA), 400 nM peptide, 38 μM ATP in 1× Kinase Buffer A.
Basic protocol for TR-FRET LanthaScreen Tb Kinase Activity Assay inhibitor studies involved two steps: • Enzymatic step: Addition of 100 nL of test compound in corresponding DMSO dilutions, 5 μL of kinase/substrate mixture, 5 μL of ATP into 384 well small volume plates. Incubation for 120 minutes at room temperature. • Detection step: Addition of 10 μL EDTA & antibody, read plate after 60 minutes. Data analysis of emission ratios according to KinEASE assay protocol.
Kinase and assay components were adjusted to final concentrations according to the kit protocol.
In the table below, activity is provided as follows: +++=IC50 less than 50 nM; ++=IC50 between 50 nM and 200 nM; +=IC50>=200 nM

wt human LRRK2, catalytic site, sequence (Q5S007 1879-2138): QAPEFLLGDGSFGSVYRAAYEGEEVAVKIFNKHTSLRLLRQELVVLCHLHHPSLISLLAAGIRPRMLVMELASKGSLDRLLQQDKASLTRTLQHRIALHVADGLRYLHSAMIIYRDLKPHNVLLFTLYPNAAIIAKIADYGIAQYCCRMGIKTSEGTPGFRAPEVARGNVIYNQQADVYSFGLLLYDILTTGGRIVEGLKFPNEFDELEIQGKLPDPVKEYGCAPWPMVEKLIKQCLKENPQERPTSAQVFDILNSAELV

Row | Structure (SMILES) | IC50 [nM]
1 | CNc1nc(Nc2c(F)ccc3[nH]ncc23)ncc1C(F)(F)F [Example 22, N2-(5-fluoro-1H-indazol-4-yl)-N4-methyl-5-(trifluoromethyl)pyrimidine-2,4-diamine] | 50 to 200
2 | CS(=O)(=O)n1ncc2c(Nc3ncc(C(F)(F)F)c(N[C@H]4CCOC4)n3)cccc21 [Example 149, (S)—N^2-(1-(Methylsulfonyl)-1H-indazol-4-yl)-N^4-(tetrahydrofuran-3-yl)-5-(trifluoromethyl)pyrimidine-2,4-diamine] | < 50
3 | CNc1nc(Nc2cc(F)cc3c2cnn3CC#N)ncc1C(F)(F)F [Example 91, 2-(6-fluoro-4-((4-(methylamino)-5-(trifluoromethyl)pyrimidin-2-yl)amino)-1H-indazol-1-yl)acetonitrile] | < 50
4 | CCNc1nc(Nc2cccc3c2cnn3C)ncc1Cl [Example 70, 5-chloro-N4-ethyl-N2-(1-methyl-1H-indazol-4-yl)pyrimidine-2,4-diamine] | < 50
5 | CNc1nc(Nc2ccc3cnn(CC#N)c3c2)ncc1C(F)(F)F [Example 16, 2-(6-((4-(methylamino)-5-(trifluoromethyl)pyrimidin-2-yl)amino)-1H-indazol-1-yl)acetonitrile] | < 50
6 | CCNc1nc(Nc2ccc(F)c3c2cnn3CC(C)(C)O)nc2[nH]nc(Cl)c12 [Example 181, 1-(4-((3-chloro-4-(ethylamino)-1H-pyrazolo[3,4-d]pyrimidin-6-yl)amino)-7-fluoro-1H-indazol-1-yl)-2-methylpropan-2-ol] | < 50
7 | CC(C)(C#N)n1ncc2c(Nc3ncc(C(F)(F)F)c(NC4CC4)n3)cccc21 [Example 103, 2-(4-((4-(cyclopropylamino)-5-(trifluoromethyl)pyrimidin-2-yl)amino)-1H-indazol-1-yl)-2-methylpropanenitrile] | < 50
8 | CNc1nc(Nc2c(C)ccc3c2cnn3C)ncc1C(F)(F)F [Example 36, N2-(1,5-dimethyl-1H-indazol-4-yl)-N4-methyl-5-(trifluoromethyl)pyrimidine-2,4-diamine] | 50 to 200
9 | CNc1nc(Nc2cccn3cncc23)ncc1C(F)(F)F [Example 130, N^2-(imidazo[1,5-a]pyridin-8-yl)-N^4-methyl-5-(trifluoromethyl)pyrimidine-2,4-diamine] | < 50
10 | CNc1nc(Nc2ccc3cn[nH]c3c2C)ncc1C(F)(F)F [Example 5, N4-methyl-N2-(7-methyl-1H-indazol-6-yl)-5-(trifluoromethyl)pyrimidine-2,4-diamine] | < 50
11 | CNc1nc(Nc2ccc(OC)c3nn(C)cc23)ncc1C(F)(F)F [Example 35, N2-(7-methoxy-2-methyl-2H-indazol-4-yl)-N4-methyl-5-(trifluoromethyl) pyrimidine-2,4-diamine] | < 50
12 | CNc1nc(Nc2cccc3[nH]ncc23)ncc1C(F)(F)F [Example 21, N2-(1H-indazol-4-yl)-N4-methyl-5-(trifluoromethyl)pyrimidine-2,4-diamine] | < 50
13 | CNc1nc(Nc2cccc3nccn23)ncc1C(F)(F)F [Example 121, N^2-imidazo[1,2-a]pyridin-5-yl-N^4-methyl-5-(trifluoromethyl)pyrimidine-2,4-diamine] | ≥ 200
14 | CCS(=O)(=O)n1ncc2c(Nc3ncc(C(F)(F)F)c(NC4CC4)n3)cccc21 [Example 143, N^4-cyclopropyl-N^2-(1-ethylsulfonylindazol-4-yl)-5-(trifluoromethyl)pyrimidine-2,4-diamine] | < 50
15 | CNc1nc(Nc2ccc3cnn(C)c3c2OC)ncc1C(F)(F)F [Example 14, N2-(7-methoxy-1-methyl-1H-indazol-6-yl)-N4-methyl-5-(trifluoromethyl)pyrimidine-2,4-diamine] | 50 to 200
16 | CNc1nc(Nc2ccc3c(C#N)nn(C)c3c2)ncc1C(F)(F)F [Example 11, 1-methyl-6-((4-(methylamino)-5-(trifluoromethyl)pyrimidin-2-yl)amino)-1H-indazole-3-carbonitrile] | < 50
17 | CNc1nc(Nc2ccc3c(C#N)n[nH]c3c2)ncc1C(F)(F)F [Example 8, 6-((4-(methylamino)-5-(trifluoromethyl)pyrimidin-2-yl)amino)-1H-indazole-3-carbonitrile] | ≥ 200
18 | CNc1nc(Nc2ccc3cnn(C)c3c2)ncc1C(F)(F)F [Example 12, N4-methyl-N2-(1-methyl-1H-indazol-6-yl)-5-(trifluoromethyl)pyrimidine-2,4-diamine] | < 50
19 | CNc1nc(Nc2cccc3c2cnn3CC(C)(C)O)nc2[nH]nc(Cl)c12 [Example 183, 1-[4-[[3-chloro-4-(methylamino)-1H-pyrazolo [3,4-d]pyrimidin-6-yl]amino]indazol-1-yl]-2-methyl-propan-2-ol] | < 50
20 | CNc1nc(Nc2c(C)[nH]c3ccccc23)ncc1C(F)(F)F [Example 63, N4-methyl-N2-(2-methyl-1H-indol-3-yl)-5-(trifluoromethyl)pyrimidine-2,4-diamine] | 50 to 200
21 | CCNc1nc(Nc2cccc3c2cnn3CC(C)(C)O)nc2[nH]cc(Cl)c12 [Example 176, 1-[4-[[5-chloro-4-(ethylamino)-7H-pyrrolo[2,3-d]pyrimidin-2-yl]amino]indazol-1-yl]-2-methyl-propan-2-ol] | < 50
22 | CNc1nc(Nc2ccc3cn[nH]c3c2OC)ncc1C(F)(F)F [Example 4, N2-(7-methoxy-1H-indazol-6-yl)-N4-methyl-5-(trifluoromethyl)pyrimidine-2,4-diamine] | 50 to 200
23 | CNc1nc(Nc2cc(CCC(=O)N3CCOCC3)cc3c2cnn3C)ncc1C(F)(F)F [Example 54, 3-(1-methyl-4-((4-(methylamino)-5-(trifluoromethyl)pyrimidin-2-yl)amino)-1H-indazol-6-yl)-1-morpholinopropan-1-one] | 50 to 200
24 | CNc1nc(Nc2cccc3nn(C)cc23)ncc1C(F)(F)F [Example 34, N4-methyl-N2-(2-methyl-2H-indazol-4-yl)-5-(trifluoromethyl)pyrimidine-2,4-diamine] | < 50
25 | FC(F)(F)c1cnc(Nc2cccc3c2cnn3CCN2CCOCC2)nc1NC1CC1 [Example 193, N^4-cyclopropyl-N^2-(1-(2-morpholinoethyl)-1H-indazol-4-yl)-5-(trifluoromethyl)pyrimidine-2,4-diamine] | < 50
26 | CNc1nc(Nc2c(C)nn3ccccc23)ncc1C(F)(F)F [Example 62, N4-methyl-N2-(2-methylpyrazolo[1,5-a]pyridin-3-yl)-5-(trifluoromethyl) pyrimidine-2,4-diamine] | 50 to 200
27 | N#CCn1ncc2c(Nc3ncc(C(F)(F)F)c(NC4CC(F)(F)C4)n3)cccc21 [Example 96, 2-(4-((4-((3,3-difluorocyclobutyl)amino)-5-(trifluoromethyl)pyrimidin-2-yl)amino)-1H-indazol-1-yl)acetonitrile] | < 50
28 | O=S(=O)(C1CC1)n1ncc2c(Nc3ncc(C(F)(F)F)c(NC4CC4)n3)ccnc21 [Example 159, N^4-cyclopropyl-N^2-(1-(cyclopropylsulfonyl)-1H-pyrazolo[3,4-b]pyridin-4-yl)-5-(trifluoromethyl)pyrimidine-2,4-diamine] | < 50
29 | CNc1nc(Nc2ccc(CCC(=O)N3CCOCC3)c3[nH]ncc23)ncc1C(F)(F)F [Example 57, 3-(4-((4-(methylamino)-5-(trifluoromethyl)pyrimidin-2-yl)amino)-1H-indazol-7-yl)-1-morpholinopropan-1-one] | < 50
